Experimental data taken from patent US11135445B2, “Antimicrobial photodynamic inactivation procedure and system” (The General Hospital Corporation, priority 2014, dated 2021).

Legend:
E. coli [1] = test: RB-mediated aPDI in vitro with/without KI; type: cell-based, Escherichia coli K-12 (ATCC 33780); settings: for killing: 10 μM RB
Description: (§1) A source of green light was configured from a white lamp and a band-pass filter probe (wavelength, 540±15 nm Lumacare, Newport Beach, Calif., USA) to deliver light over a spot of 4 cm in diameter to simultaneously irradiate four wells of a 24-well plate in vitro or the whole abrasion in vive at an irradiance of 100 mW/cm^2. Light power was measured with a power meter (model DMM 199 with a 201 standard head; Coherent, Santa Clara, Calif., USA).
(§2) The following microbial strains were used: the Gram-positive bacterium methicillin-resistant Staphylococcus aureus (MRSA) USA 300, Gram-negative bacteria Escherichia coli K-12 (ATCC 33780) and Pseurdomonas aeruginosa ATCC 19660 (Xen 5P), and strain CEC 749 of the luciferase-expressing fungal yeast Candida albicans. A colony of bacteria or fungal yeast was suspended in 20 ml of brain heart infusion (BHI) broth for bacteria or yeast extract-peptone-dextrose (YPD) for C. albicans and grown overnight in a shaker incubator (New Brunswick Scientific, Edison, N.J.) at 120 rpm under aerobic conditions at 37° C. for bacteria and at 30° C. for C. albicans. For bacteria, an aliquot of 1 ml from an overnight bacterial suspension was refreshed in fresh BHI for 2 to 3 h at 37° C. to mid-log phase. The cell concentration was estimated by measuring the optical density (OD) at 600 nm (OD of 0.6=10^8 cells/ml). The C. albicans cell number was assessed with a hemocytometer and was generally between 10^7 and 10^8 cells/ml.
(§3) Two types of in vitro aPDI experiments were carried out. The first experiments used cells with fixed RB and KI concentrations while varying the dose of irradiating light. The second type of experiments used cells with a fixed RB concentration and a fixed light dose while varying the KI concentration. Here, comparison was performed based on the order of addition of the components and the effect of centrifugation. […]

C. albicans = test: RB-mediated aPDI in vitro with/without KI; type: cell-based, Candida albicans CEC 749
Description: as §1
as §2, with “The cell concentration was estimated by measuring the optical density (OD) at 600 nm (OD of 0.6=10^8 cells/ml).” left out, “cells/ml. […]” for “cells/ml.”

P. aeruginosa [2] = test: RB-mediated aPDI in vitro with/without KI; type: cell-based, Pseudomonas aeruginosa ATCC 19660 (Xen 5P); settings: no KI
Description: as §1
as §2, with “The cell concentration was estimated by measuring the optical density (OD) at 600 nm (OD of 0.6=10^8 cells/ml).” left out, “cells/ml. […]” for “cells/ml.”

P. aeruginosa [3] = test: In vivo PDT of skin abrasions infected with bioluminescent P. aeruginosa; set-up: species or system BALB/c mice; settings: RB 500 μM, up to 20 J/cm^2
Description: The Pseudomonas aerugenosa strain used in this work was ATCC 19660 (Xen 5P). Bacteria were routinely grown in BHI with aeration in an orbital incubator at 100 rpm and 37° C. overnight to stationary phase. An aliquot of this suspension was then refreshed in fresh BHI to mid-log phase. Cell numbers were estimated by measuring the OD at 600 nm (OD of 0.6=10^8 CFU cells/ml). The bacterial suspension was centrifuged, washed, and resuspended in PBS, and the suspension was diluted 10-fold for the in vivo experiments.
An IVIS Lumina series III in vivo imaging system (PerkinElmer, Inc., Waltham, Mass., USA) was applied for bioluminescence imaging on a daily basis until the disappearance of the infection by bioluminescence imaging. Using the photon counting mode, an image can be obtained by detecting and integrating individual photons emitted by the bacterial cells. Prior to PDT and imaging, mice were anesthetized by intraperitoneal (i.p.) injection of a ketamine-xylazine cocktail. […] The signal from the bioluminescence image was quantified as the region of interest (ROI), with absolute calibrated data being given as the number of photons/(s cm^2 sr), using the IVIS software. […]
Mice were divided into four groups of 5 mice each. […] Then, the wounds were irradiated with green light at a fluence of up to 20 J/cm^2, and luminescence imaging was performed after irradiation.

MRSA = test: RB-mediated aPDI in vitro with/without KI; type: cell-based, methicillin-resistant Staphylococcus aureus (MRSA) USA 300
Description: as §1, §2, §3

[4] = Time-resolved singlet oxygen detection (1,270-nm phosphorescence); type: physicochemical
Description: The interaction of iodide with singlet oxygen photogenerated by RB was examined directly by measuring the lifetime of singlet oxygen at different concentrations of KI and indirectly by monitoring the effect of increasing concentrations of iodide on oxygen uptake induced by irradiation of the RB solution with green light. Time-resolved singlet oxygen detection was carried out as follows. Phosphate-buffered (pH 7.2) D2O solutions of RB (optical densitv,=0.25 to 0.3 at 550 nm) in a 1-cm-optical-path quartz fluorescence cuvette (catalog number QA-1000; Hellma, Mullheim. Germany) were excited by 550-nm pulses generated by an integrated nanosecond neodymium-doped yttrium aluminum garnet laser system equipped with a narrow-band-width optical parametric oscillator (model NT242-1k-SH/SFG; Ekspla. Vilnius, Lithuania), which delivered pulses at a repetition rate of 1 kHz with energy of up to several hundred microjoules in the visible region. […] The near-infrared luminescence (1,270 nm) was measured perpendicularly to the excitation beam in a photon-counting mode using a thermoelectric cooled near-infrared photomultiplier tube (NIR PMT) module (model H10330-45; Hamamatsu, Japan) equipped with a 1,100-nm-cutoff filter and an additional dichroic narrow-band filter narrow-band pass (NBP), selectable from the spectral range of 1,150 to 1,355 nm (NDC Infrared Engineering Ltd., Maldon, Essex, UK). […]

E. coli [5] = test: Toxicity of KI alone on bacteria; type: cell-based, Escherichia coli K12 (ATCC 33780); settings: KI 0-50 mM, 10 minutes, dark control and 5 J/cm^2 red light
Description: (§4) Since there existed a possibility that KI itself could exert an antimicrobial effect, to eliminate or at least account for the direct influence of the KI on the bacteria and to ensure that the final efficiency of the PDI process is attributed to the potentiation of the MB with the KI, additional qualitative performance evaluation tests were performed. Specifically, the bacteria cells (10^8 CFU; 500 uL) were incubated with different concentrations of KI (0-50 mM) for 10 minutes in order to verify the toxicity of KI. An aliquot of 100 μl from each sample, was used as dark control, another (100 μl) was irradiated with 5 J/cm^2 dose of light (660 nm light) and then placed in a new 96 well plate. The aliquots were serially diluted as before. The results presented in FIGS. 2A, 2B (for S. aureus and E. coli) verified that KI itself was not responsible for the increased potency of the PDI treatment observed in the experiments with the MCPPS.

S. aureus = test: Toxicity of KI alone on bacteria; type: cell-based, Staphylococcus aureus (NCTC 8325); settings: KI 0-50 mM, 10 minutes, dark control and 5 J/cm^2 red light
Description: as §4

[6] = test system: mammalian dermal skin fibroblasts; test: Effect of KI in vitro on mammalian cells; type: cell-based; settings: 3 hours, KI 0.001-10 mM

Row | SMILES | killing (E. coli [1]; no KI, 20 J/cm^2 540 nm) [logs] | killing (E. coli [1]; with or without 100 mM KI, 10 J/cm^2 540 nm) | killing by RB aPDI in the absence of KI (E. coli [1]; no KI) | killing (C. albicans; 10 μM RB plus light, no KI, either fluence (10, 20 J/cm^2)) | killing, cells centrifuged after incubation with RB (C. albicans; 10 μM RB, 10 J/cm^2, KI up to 100 mM) | killing by RB aPDI in the absence of KI (P. aeruginosa [2]) | reduction in the bioluminescence signal with 540-nm light (P. aeruginosa [3]) | killing (MRSA; 100 nM RB plus light, no KI) [logs] | killing after a spin (centrifugation) (MRSA; 100 nM RB, 10 J/cm^2) | RB concentration that produced eradication (MRSA; RB as antimicrobial PS plus light) [nM] | shortening of observable lifetime of singlet oxygen-dependent luminescence ([4]; 35 mM KI, RB in D2O) | bimolecular rate constant of quenching (kq) of singlet oxygen ([4]; RB-photogenerated singlet oxygen, KI 0 to 50 mM) | bacteria killing by KI alone (E. coli [5]) | bacteria killing by KI alone (S. aureus) | killing of mammalian cells by KI [6]
1 | O=C1OC2(c3cc(I)c(O)c(I)c3Oc3c2cc(I)c(O)c3I)c2c(Cl)c(Cl)c(Cl)c(Cl)c21 [RB, Rose bengal] | 2 | less than 1 logs | almost no killing | no killing | some minor killing after centrifugation | almost no killing | only a slight reduction | 1 to 2 | centrifugation abolished the killing | 200 | – | – | – | – | –
2 | [I-].[K+] [KI, potassium iodide] | – | – | – | – | – | – | – | – | – | – | more than 3 fold | 1.1*10^6 l/(m*s) | no bacteria killing was found | no bacteria killing was found | did not kill mammalian cells
